Data as given in patent publication US12338261B2 (SUMITOMO PHARMA ONCOLOGY, INC., priority 2015, dated 2025).

Test system: MCL-1 protein expression
Experiment: Mouse xenograft pharmacodynamic study
Assay type: in vivo
Conditions: MV4-11 xenograft tumors, 48 hours post-treatment
Protocol: The in vivo pharmacodynamic activity of compound IB′ was determined in a MV4-11 mouse xenograft model of AML (FIG. 6A-B). Injection of 8×10^6 cells/mouse was followed by growth of tumors to approximately 100 mm^3. After tumors reached an appropriate size, mice were randomized into the following treatment groups: Vehicle, compound IB′ (2.5 mg/kg), compound IB′ (0.5 mg/kg), compound IB′ (0.1 mg/kg), compound IB′ (0.02 mg/kg). Mice were administered a single treatment dose and tumors were harvested 48 hours post-treatment. MCL-1 protein levels were assessed on harvested tumors using standard polyacrylamide gel electrophoresis and immunoblotting technique (FIG. 6A).

## CN1CC[C@H](c2c(OP(=O)(O)O)cc(O)c3c(=O)cc(-c4ccccc4Cl)oc23)[C@H](O)C1 [Compound IB′, 2-(2-chlorophenyl)-5-hydroxy-8-(3-hydroxy-1-methylpiperidin-4-yl)-4-oxo-4H-chromen-7-yl dihydrogen phosphate]
Single dose 0.02 mg/kg
  Reduction of MCL-1 Expression: 0.0%
Single dose 0.1 mg/kg
  Reduction of MCL-1 Expression: 46%
Single dose 0.5 mg/kg
  Reduction of MCL-1 Expression: 61%
Single dose 2.5 mg/kg
  Reduction of MCL-1 Expression: 54%
